Test results reported in patent US20260285830A1, “CRYSTALLINE METHIONINE ADENOSYLTRANSFERASE 2a (MAT2A) INHIBITOR AND USES THEREOF” (Insilico Medicine IP Limited, priority 2023, published 2026).
Counter-ions that a name gives are not always drawn.

Tests used:
[1] = Stability of 1 mg capsules (total impurity); assay type: physicochemical; conditions: 1 mg capsules in aluminum blister foils
Protocol: Compound 1 freebase Type A or Compound 1 maleate salt Type A was sieved with 40 mesh sieves, followed by mixing with the same amount of diluent, disintegrant and lubricant to prepare 1000 capsules. The strength of these capsules is 1 mg, and the capsules are packaged in aluminum blister foils. The stability of 1 mg capsules was investigated at 40° C./75% RH and 60° C., and the results were in Table 26.

[2] = Hygroscopicity evaluation (DVS); assay type: physicochemical; conditions: for hygroscopicity (in words): DVS at 25 °C, water uptake up to 80% RH; for water uptake up to 80% RH: DVS isotherm at 25 °C between 0% RH and 95% RH
Protocol: Compound 1 Freebase Type A/B/C, Compound 1 maleate salt Type A, and Compound 1 citrate salt Type A were evaluated for hygroscopicity. DVS isotherm plots were collected at 25 ? between 0% RH and 95% RH.

HCT116 MTAP+/+ = assay: Inhibition of cellular proliferation (Cell Titer Glo), HCT116 WT (MTAP+/+); assay type: cell-based; conditions: Homo sapiens, HCT-116, 120 h, 5 days treatment
Protocol: (§1) Test compound impact on cancer cell growth was assessed by treating cancer cells with compound for 5 days and then measuring proliferation using an ATP-based cell proliferation readout (Cell Titer Glo, Promega Corporation).
(§2) In a typical assay an isogenic pair of HCT116 human colon carcinoma cell lines which vary only in MTAP deletion status (HCT116 MTAP+/+ and HCT116 MTAP−/−) were plated in 96-well dishes at appropriate cell density. Following 24 hours, cells were then treated with the candidate MAT2A inhibitor. Prior to addition to cells, the compound was first serially diluted in DMSO, typically as a 3-fold serial dilution with 9 dose points.
(§3) Compound was then transferred to a working stock plate in cell culture media by adding 3 μl of compound in DMSO to 297 μl of cell culture media. […]
(§4) To measure inhibition of cellular proliferation, cells were allowed to equilibrate to room temperature for 30 minutes, and were then treated with 40 μl of Cell Titer Glo reagent. […] Luminescent signal of the Cell Titer Glo reagent was then measured using a plate-based luminometer and normalized via an ATP standard curve. This luminescence measure was converted to a proliferation index by subtracting from each datapoint the ATP luminescence measured from a control cell plate that was measured at the time of compound treatment. […]

HCT116 MTAP−/− = assay: Inhibition of cellular proliferation (Cell Titer Glo), HCT116 MTAP-/-; assay type: cell-based; conditions: Homo sapiens, HCT-116, 120 h, 5 days treatment
Protocol: as §1, §2, §3, §4

[3] = Pharmacokinetics in male Sprague Dawley rats, intravenous injection; assay type: in vivo; conditions: rat, plasma, 1 mg/kg; male SD rats, n=3, intravenous injection, 0.2 mg/mL, 5 mL/kg
Protocol: Test compounds was dissolved in 5% DMSO+95% (10% HP-β-CD in Saline) to a concentration of 0.2 mg/mL and given to SD rats (Male, n=3) by intravenous injection (5 mL/kg). Blood samples were collected at 0.083 h, 0.25, 0.5, 1, 2, 4, 8, and 24 h after injection (anticoagulant:K2-EDTA). These tubes were kept in an ice bath prior to centrifugation at approximately 6800 g for 6 minutes at approximately 5° C. Samples were analyzed for the presence of the test compound with an TQ5500 mass spectrometer (AB Sciex) coupled to an ACQUITY UPLC BEH C18 (1.7 μm, 2.1 mm×50 mm) HPLC column. Gradient elution was applied consisting of ultrapure water containing 0.1% formic acid and acetonitrile containing 0.1% formic acid. Standard set of parameters including Area Under the Curve (AUC (0-t) and […]), elimination half-live (T1/2), maximum plasma concentration (Cmax), time to reach maximum plasma concentration (Tmax) will be calculated using non-compartmental analysis modules in Phoenix WinNonlin 7.0 (Pharsight, USA).

[4] = Kinetic solubility evaluation; assay type: physicochemical; conditions: H2O, SGF and FaSSIF, 37 °C, solid loading ~10 mg/mL (calculated as freebase)
Protocol: Kinetic solubility of Compound 1 Freebase Type A, Compound 1 maleate salt Type A, and Compound 1 citrate salt Type A were measured in water, SGF (Simulated Gastric Fluid), FaSSIF (Fasted State Simulated Intestinal Fluid) and FeSSIF (Fed State Simulated Intestinal Fluid) at 37 ? with solid loading of ~10 mg/mL (calculated as freebase). The results are presented in FIG. 59A, FIG. 59B, FIG. 59C, and FIG. 59D.

For `C#CCNc1nc(=O)n(-c2cccnc2C)c2cc(C(F)(F)F)cc(OC)c12` [Compound 1 Freebase Type A, 5-methoxy-1-(2-methylpyridin-3-yl)-4-(prop-2-yn-1-ylamino)-7-(trifluoromethyl) quinazolin-2 (1H)-one], which Total impurity ([1]; 40° C./75% RH, 0 d, listed as Free form Type A) is on record?
The Total impurity was 0.21%.

What about the Total impurity ([1]; 40° C./75% RH, 10 d, listed as Free form Type A) of the same compound?
The Total impurity was 0.95%.

And the Total impurity ([1]; 60° C., 0 d, listed as Free form Type A)?
The Total impurity was 0.21%.

And the Total impurity ([1]; 60° C., 5 d, listed as Free form Type A)?
Its Total impurity is 4.4%.

And the Total impurity ([1]; 60° C., 10 d)?
The Total impurity was 8.04%.

And the “hygroscopicity (in words)” value [2]?
Its value is “slightly hygroscopic”.

And the “water uptake up to 80% RH” value [2]?
Its value is ~ 0.3%.

And the IC50 (HCT116 MTAP+/+)?
The IC50 was 21 µM.

What about the IC50 (HCT116 MTAP−/−) of the same compound?
Its IC50 is 0.198 µM.

What about the clearance [3] of the same compound?
Its clearance is 0.17 mL/min/kg.

With `C#CCNc1nc(=O)n(-c2cccnc2C)c2cc(C(F)(F)F)cc(OC)c12` [Compound 1 Freebase Type B, 5-methoxy-1-(2-methylpyridin-3-yl)-4-(prop-2-yn-1-ylamino)-7-(trifluoromethyl) quinazolin-2 (1H)-one] as the compound, how does the “water uptake up to 80% RH” value [2] read?
Its value is ~ 11.6%.

Which “water uptake up to 80% RH” value [2] does the source give for `C#CCNc1nc(=O)n(-c2cccnc2C)c2cc(C(F)(F)F)cc(OC)c12` [Compound 1 Freebase Type C, 5-methoxy-1-(2-methylpyridin-3-yl)-4-(prop-2-yn-1-ylamino)-7-(trifluoromethyl) quinazolin-2 (1H)-one] here?
Its value is ~ 6.7%.

Which “hygroscopicity (in words)” value [2] does the source give for `C#CCNc1nc(=O)n(-c2cccnc2C)c2cc(C(F)(F)F)cc(OC)c12` [Compound 1 citrate salt Type A, 5-methoxy-1-(2-methylpyridin-3-yl)-4-(prop-2-yn-1-ylamino)-7-(trifluoromethyl) quinazolin-2 (1H)-one] here?
The value was “slightly hygroscopic”.

What about the “water uptake up to 80% RH” value [2] of the same compound?
The value was 1.6%.

What about the “kinetic solubility compared with Compound 1 Freebase Type A” value [4] of the same compound?
The value was “improved solubility”.

Which Total impurity ([1]; 40° C./75% RH, 0 d, listed as Maleate Type A) does the source give for `C#CCNc1nc(=O)n(-c2cccnc2C)c2cc(C(F)(F)F)cc(OC)c12` [Compound 1 maleate salt Type A, 5-methoxy-1-(2-methylpyridin-3-yl)-4-(prop-2-yn-1-ylamino)-7-(trifluoromethyl) quinazolin-2 (1H)-one] here?
Its Total impurity is 0.10%.

And the Total impurity ([1]; 40° C./75% RH, 10 d, listed as Maleate Type A)?
Its Total impurity is 2.0%.

And the Total impurity ([1]; 60° C., 0 d, listed as Maleate Type A)?
Its Total impurity is 0.10%.

And the Total impurity ([1]; 60° C., 5 d, listed as Maleate Type A)?
The Total impurity was 12.6%.

And the “hygroscopicity (in words)” value [2]?
Its value is “non-hygroscopic”.

What about the “water uptake up to 80% RH” value [2] of the same compound?
The value was ~ 0.07%.

What about the “kinetic solubility compared with Compound 1 Freebase Type A” value [4] of the same compound?
Its value is “improved solubility”.

What about the “kinetic solubility compared with Compound 1 citrate salt Type A” value [4] of the same compound?
Its value is “higher solubility”.
